# System: anesthetized dogs
# Test: Hemodynamics in anesthetized dogs, iv
# Type: in vivo
# Protocol: Solvent control group, Isosorbide Dinitrate control group (0.4 mg/kg/h) and administration groups of 3,4′,5-trihydroxy-stilbene-3-[…]-D-glucoside at low (2.5 mg/kg), middle (5 mg/kg) or high (10 mg/kg) doses were set up for the test. Isosorbide Dinitrate control group were medicated by continuous intravenous infusion and other groups by intravenous injection.
# After anesthetized with pentobarbital sodium, the dog was immobilized on its back. A femoral artery was separated for insertion of a catheter to record blood pressure of artery. A cardiac catheter was guided inversely from right common carotid artery into its left ventricle. Both catheters were connected to pressure transmitters. After pressure signals were amplified with carriers, they were input into an electrophysiolograph Powerlab system 8s, (ML785/8S AD Instruments, Australia). Needle electrodes were punctured into four limbs to monitor standard 2-lead ECG. A computer (chart4.12, ML785/8S, AD Instruments, Australia) were applied for real-time monitoring and storage of data. After operation, there were 30 minutes for stableness and then basic indexes were recorded before administration. Negative control group were given by […] injection of solvent at 2 ml/kg, while positive control group were intravenously infused at 0.4 mg/kg/h. […]
# Indexes of observation included heart rate (HR), systolic blood pressure (BPs), diastolic blood pressure, mean blood pressure, left ventricular systolic pressure (LVSP), left ventricular diastolic pressure (LVDP), the maximum change rate of left ventricular systolic pressure rise and fall (±dp/dtmax), left ventricular end diastolic pressure and ECG.
# Significance of differences was checked.
# [1] = TSG 2.5 mg/kg iv, Time c1-c5: 0,10,30,60,120 min, 10 min after dosing
# [2] = TSG 2.5 mg/kg iv, Time c1-c5: 0,10,30,60,120 min, 30 min after dosing
# [3] = TSG 2.5 mg/kg iv, Time c1-c5: 0,10,30,60,120 min, 60 min after dosing
# [4] = TSG 2.5 mg/kg iv, Time c1-c5: 0,10,30,60,120 min, 120 min after dosing
# [5] = TSG 2.5 mg/kg iv, Time c1-c5: 0,10,30,60,120 min, before dosing (0 min)
# [6] = TSG 5 mg/kg iv, Time c1-c5: 0,15,30,60,120 min, 0 min, before dosing
# [7] = TSG 5 mg/kg iv, Time c1-c5: 0,15,30,60,120 min, 15 min after dosing
# [8] = TSG 5 mg/kg iv, Time c1-c5: 0,15,30,60,120 min, 30 min after dosing
# [9] = TSG 5 mg/kg iv, Time c1-c5: 0,15,30,60,120 min, 60 min after dosing
substance,measurement,setting,value
"3,4′,5-trihydroxy-stilbene-3-β-D-glucoside [TSG]",+dp/dt max,[1],829.1 ± 308.3 Kpa/s
same,BPd,[1],18.3 ± 2.3 KPa
same,BPm,[1],20.7 ± 2.1 KPa
same,BPs,[1],24.5 ± 2.0 KPa
same,HR,[1],160.4 ± 18.4 p/min
same,LVDP,[1],0.45 ± 2.40 KPa
same,LVEDP,[1],1.00 ± 2.33 KPa
same,LVSP,[1],25.2 ± 4.2 KPa
same,−dp/dt max,[1],777.3 ± 241.8 Kpa/s
same,+dp/dt max,[2],869.6 ± 235.9 Kpa/s
same,BPd,[2],18.5 ± 2.2 KPa
same,BPm,[2],20.8 ± 1.7 KPa
same,BPs,[2],24.7 ± 1.3 KPa
same,HR,[2],161.7 ± 18.0 p/min
same,LVDP,[2],0.28 ± 2.40 KPa
same,LVEDP,[2],1.11 ± 2.50 KPa
same,LVSP,[2],25.7 ± 3.8 KPa
same,−dp/dt max,[2],873.9 ± 236.8 Kpa/s
same,+dp/dt max,[3],993.9 ± 206.2 Kpa/s
same,BPd,[3],19.1 ± 2.5 KPa
same,BPm,[3],21.6 ± 2.0 KPa
same,BPs,[3],25.5 ± 1.6 KPa
same,HR,[3],171.1 ± 18.8 p/min
same,LVDP,[3],0.26 ± 2.35 KPa
same,LVEDP,[3],0.78 ± 2.37 KPa
same,LVSP,[3],26.5 ± 2.5 KPa
same,−dp/dt max,[3],905.9 ± 207.8 Kpa/s
same,+dp/dt max,[4],957.9 ± 190.0 Kpa/s
same,BPd,[4],18.1 ± 1.8 KPa
same,BPm,[4],20.2 ± 2.3 KPa
same,BPs,[4],23.7 ± 3.3 KPa
same,HR,[4],170.5 ± 16.1 p/min
same,LVDP,[4],0.50 ± 2.06 KPa
same,LVEDP,[4],1.09 ± 2.16 KPa
same,LVSP,[4],26.7 ± 2.3 KPa
same,−dp/dt max,[4],852.5 ± 159.6 Kpa/s
same,+dp/dt max,[5],853.1 ± 321.1 Kpa/s
same,BPd,[5],18.5 ± 1.7 KPa
same,BPm,[5],21.1 ± 2.0 KPa
same,BPs,[5],25.3 ± 3.0 KPa
same,HR,[5],163.7 ± 21.1 p/min
same,LVDP,[5],0.39 ± 2.20 KPa
same,LVEDP,[5],1.14 ± 2.18 KPa
same,LVSP,[5],24.9 ± 4.0 KPa
same,−dp/dt max,[5],772.0 ± 201.0 Kpa/s
same,+dp/dt max,[6],822.6 ± 353.8 Kpa/s
same,BPd,[6],18.9 ± 4.2 KPa
same,BPm,[6],21.1 ± 4.7 KPa
same,BPs,[6],25.4 ± 6.4 KPa
same,HR,[6],177.2 ± 35.5 p/min
same,LVEDP,[6],1.05 ± 1.34 KPa
same,LVSP,[6],24.1 ± 4.4 KPa
same,−dp/dt max,[6],866.2 ± 350.7 Kpa/s
same,+dp/dt max,[7],793.8 ± 299.0 Kpa/s
same,BPd,[7],18.7 ± 4.4 KPa
same,BPs,[7],25.4 ± 5.8 KPa
same,HR,[7],171.0 ± 35.6 p/min
same,LVEDP,[7],1.08 ± 1.62 KPa
same,LVSP,[7],24.3 ± 4.6 KPa
same,−dp/dt max,[7],812.2 ± 308.9 Kpa/s
same,+dp/dt max,[8],855.5 ± 296.5 Kpa/s
same,BPd,[8],19.2 ± 4.0 KPa
same,BPm,[8],21.7 ± 4.2 KPa
same,BPs,[8],26.1 ± 5.3 KPa
same,HR,[8],170.0 ± 35.5 p/min
same,LVEDP,[8],1.19 ± 1.76 KPa
same,LVSP,[8],24.6 ± 4.6 KPa
same,−dp/dt max,[8],912.3 ± 318.8 Kpa/s
same,+dp/dt max,[9],936.1 ± 199.9 Kpa/s
same,BPd,[9],19.8 ± 3.3 KPa
same,BPm,[9],22.1 ± 3.3 KPa
same,BPs,[9],26.6 ± 4.1 KPa
